Assay results: US10292393B2, “Mitigation of alternate bearing” (The Regents of the University of California, priority 2009, dated 2019)
Marks after values point to notes of the source that are not given here.

Columns and labels:
[1] = system: on-crop ‘Nules’ Clementine mandarin trees; assay: Trunk injections, spring bloom of on-crop mandarin trees; assay type: in vivo; details: trunk injection 1 g per tree, counted at spring bloom
From the text: This example describes the mitigation of alternate bearing in ‘Nules’ Clementine mandarin trees achieved via trunk injection of adenosine in a composition containing the auxin transport inhibitor TIBA. On-crop ‘Nules’ Clementine mandarin trees received trunk injections of the following compounds listed in Table 1-1: TIBA (2,3,5-triiodobenzoic acid) (Sigma Chemical); 6-BA (6-benzyladenine) (Sigma Chemical); GA3 (PROGIBB® 40%, Valent BioSciences Corp.); and Ado (9-beta-D-adenosine) (Sigma Chemical, Catalog No. A9251) alone or in combination with TIBA. Each material was supplied at the rate of 1 g per tree dissolved in 50-60 ml distilled water using two plastic syringes per tree at each application time. Application times were timed (1) to stimulate summer shoot growth by overcoming correlative inhibition (July) and (2) to overcome inhibition of spring bud break (January). Thus, trees were treated in July alone or in July and January. There was also a treatment in which the apical three nodes of each shoot were removed to release the lateral buds from the dominance of the apical bud to promote summer vegetative shoot growth. The treatments included untreated on-crop control trees and untreated off-crop control trees. The experimental design was a randomized complete block with 5 individual tree replications per treatment with 13 treatments. For each tree, branches (12 inches long), 3 with fruit and 1 branch without fruit in each of the four tree quadrants, were tagged (off-crop control trees were tagged 3 without fruit and 1 with fruit). At the end of September and December, the number and length of new vegetative shoots were quantified to determine the capacity of treatments to overcome inhibition of buds that produce the summer and fall flush shoots, respectively.

[2] = system: on-crop ‘Hass’ avocado trees; assay: Trunk injections, spring bloom and yield of on-crop avocado trees; assay type: in vivo, ‘Hass’ avocado (Persea americana cv. Hass); details: trunk injection 1 g/tree, Jan; for Floral (with fruit): branches with fruit; for Floral (w/o fruit): branches without fruit; for Fruit yield: putative off-crop following the on-crop; for Determinate floral shoots / Floral shoots / Indeterminate floral shoots: spring bloom
Procedure: This example describes the mitigation of alternate bearing in ‘Hass’ avocado trees achieved via trunk injection of adenosine and plant growth regulators. The following treatments were injected (1 g/tree) in mid-January into the trunk of on-crop ‘Hass’ avocado trees in a commercial orchard in Irvine, Calif.: (1) 9-beta-D-adenosine (Sigma Chemical, Catalog No. A9251); (2) 6-BA (Sigma Chemical); (3) GA3 (PROGIBB® 40%, Valent BioSciences Corp.); (4) TIBA (Sigma Chemical); and (5) TIBA plus adenosine. Each material was supplied at the rate of 1 g per tree dissolved in 50-60 ml distilled water using two plastic syringes per tree. There were five individual tree replicates per treatment, including (6) untreated on-crop control trees. For each tree, branches (12 inches long), 1 with fruit and 1 branch without fruit in each of the four tree quadrants, were tagged.

[3] = system: ‘Fina Sodea’ Clementine mandarin trees
[4] = system: mandarins; details: cited from earlier work
[5] = 3-year cumulative, 25 mg/L in 250 gallons water per acre, once at maximum peel thickness
[6] = 3-year cumulative, jumbo (63.51-69.85 mm)
[7] = 3-year cumulative, large (57.16-63.50 mm)
[8] = 3-year cumulative, mammoth (69.86-76.20 mm)
[9] = 3-year cumulative, medium (50.81-57.15 mm)
[10] = 3-year cumulative, small (44.45-50.80 mm)

SMILES | Floral on Spring shoots ([1]; Jul + Jan) | Floral on Summer-Fall shoots ([1]; Jul + Jan) | Floral shoots ([1]; Jul + Jan) | Leafless Floral shoots ([1]; Jul + Jan) | Leafy Floral shoots ([1]; Jul + Jan) | Floral on Spring shoots ([1]; July) | Floral on Summer-Fall shoots ([1]; July) | Floral shoots ([1]; July) | Leafless Floral shoots ([1]; July) | Leafy Floral shoots ([1]; July) | Floral (with fruit) [2] | Floral (w/o fruit) [2] | Fruit yield [2] [No. per tree] | Determinate floral shoots [2] | Floral shoots [2] | Indeterminate floral shoots [2] | other results
O=C(O)c1cc(I)cc(I)c1I [TIBA, 2,3,5-triiodobenzoic acid] | 5 bc No. of shoots per 100 nodes | 26 No. of shoots per 100 nodes | 18 No. of shoots per 100 nodes | 3 No. of shoots per 100 nodes | 15 No. of shoots per 100 nodes | 3 bc No. of shoots per 100 nodes | 27 No. of shoots per 100 nodes | 19 No. of shoots per 100 nodes | 5 No. of shoots per 100 nodes | 13 No. of shoots per 100 nodes | 11 No. of shoots per 100 nodes | 8 No. of shoots per 100 nodes | 478 | 1 b No. of shoots per 100 nodes | 9 b No. of shoots per 100 nodes | 8 No. of shoots per 100 nodes | 
Nc1ncnc2c1ncn2[C@@H]1O[C@H](CO)[C@@H](O)[C@H]1O [Ado, 9-beta-D-adenosine] | 5 bc No. of shoots per 100 nodes | 16 No. of shoots per 100 nodes | 12 No. of shoots per 100 nodes | 0 No. of shoots per 100 nodes | 12 No. of shoots per 100 nodes | 2 bc No. of shoots per 100 nodes | 14 No. of shoots per 100 nodes | 10 No. of shoots per 100 nodes | 2 No. of shoots per 100 nodes | 8 No. of shoots per 100 nodes | 8 No. of shoots per 100 nodes | 10 No. of shoots per 100 nodes | 220 | 3 ab No. of shoots per 100 nodes | 10 ab No. of shoots per 100 nodes | 7 No. of shoots per 100 nodes | Quantity of fruit, Total [3, 5]: 1529.3^y fruit no./tree; Yield of fruit, Total [3, 5]: 126.30^y kg/tree; Quantity of fruit, Colossal ([3]; 3-year cumulative, colossal (76.21-82.55 mm)): 5.64 fruit no./tree; Quantity of fruit, Jumbo [3, 6]: 128.25 a fruit no./tree; Yield of fruit, Jumbo [3, 6]: 15.42 a kg/tree; Quantity of fruit, Large [3, 7]: 360.93 a fruit no./tree; Yield of fruit, Large [3, 7]: 34.67 a kg/tree; Quantity of fruit, Mammoth [3, 8]: 22.89 fruit no./tree; Yield of fruit, Mammoth [3, 8]: 3.52 kg/tree; Quantity of fruit, Medium [3, 9]: 497.05 fruit no./tree; Yield of fruit, Medium [3, 9]: 37.00 kg/tree; Yield of fruit, Colossal ([3]; 3-year cumulative, packing carton size colossal (76.21-82.55 mm)): 1.04 kg/tree; Quantity of fruit, Small [3, 10]: 417.12 fruit no./tree; Yield of fruit, Small [3, 10]: 23.58 kg/tree; Quantity of fruit, Ma + J + L ([3]; 3-year cumulative, sum of mammoth, jumbo and large): 512.07 a fruit no./tree; Yield of fruit, Ma + J + L ([3]; 3-year cumulative, sum of mammoth, jumbo and large (57.16-76.20 mm)): 53.60 kg/tree; Effects on mandarin fruit quality ([3]; in vivo): did not have negative effects; Net increase in total yield ([3]; versus control, numerical (non-significant)): 6,799 lbs fruit/200 trees/acre; Net increase in 3-year cumulative yield of commercially valuable large fruit (57.16-76.20 mm in diameter) ([3]; versus control, statistically significant): 4,735 lbs/200 trees/acre
C=C1C[C@]23C[C@@]1(O)CC[C@H]2[C@@]12C=C[C@H](O)[C@@](C)(C(=O)O1)[C@H]2[C@@H]3C(=O)O [GA3, gibberellic acid] | 0 c No. of shoots per 100 nodes | 2 No. of shoots per 100 nodes | 1 No. of shoots per 100 nodes | 0 No. of shoots per 100 nodes | 1 No. of shoots per 100 nodes | 0 c No. of shoots per 100 nodes | 4 No. of shoots per 100 nodes | 3 No. of shoots per 100 nodes | 0 No. of shoots per 100 nodes | 3 No. of shoots per 100 nodes | 6 No. of shoots per 100 nodes | 8 No. of shoots per 100 nodes | 194 | 2 b No. of shoots per 100 nodes | 7 b No. of shoots per 100 nodes | 6 No. of shoots per 100 nodes | Effect on total number of fruit per tree ([4]; light crop year (approximately 550 fruit per tree), four applications from 60% bloom, 15 or 25 mg GA3/L): successfully increase the total number of fruit per tree; Effect on total yield and yield of large size fruit ([4]; on-crop years (approximately 1200 fruit per tree)): either reduced both total yield and yield of commercially valuable large size fruit (packing carton sizes large, jumbo and mammoth) or had no effect
